“Also recorded” adds a separate entry of the source.

Consider one compound from patent US11173160B2 (UNIVERSITY OF PITTSBURGH—OF THE COMMONWEALTH SYSTEM OF …, priority 2019, dated 2021).

One data set addresses PKA (Homo sapiens, UniProt P17612). The note with it: cited from earlier work.
A further data set addresses PDK1 (Homo sapiens, UniProt O15530). The note with it: cited from earlier work.
A further data set deals with DYRKIB (Homo sapiens, UniProt Q9Y463). The conditions noted are these: cited from earlier work.
Chain of DYRKIB (Q9Y463 whole entry): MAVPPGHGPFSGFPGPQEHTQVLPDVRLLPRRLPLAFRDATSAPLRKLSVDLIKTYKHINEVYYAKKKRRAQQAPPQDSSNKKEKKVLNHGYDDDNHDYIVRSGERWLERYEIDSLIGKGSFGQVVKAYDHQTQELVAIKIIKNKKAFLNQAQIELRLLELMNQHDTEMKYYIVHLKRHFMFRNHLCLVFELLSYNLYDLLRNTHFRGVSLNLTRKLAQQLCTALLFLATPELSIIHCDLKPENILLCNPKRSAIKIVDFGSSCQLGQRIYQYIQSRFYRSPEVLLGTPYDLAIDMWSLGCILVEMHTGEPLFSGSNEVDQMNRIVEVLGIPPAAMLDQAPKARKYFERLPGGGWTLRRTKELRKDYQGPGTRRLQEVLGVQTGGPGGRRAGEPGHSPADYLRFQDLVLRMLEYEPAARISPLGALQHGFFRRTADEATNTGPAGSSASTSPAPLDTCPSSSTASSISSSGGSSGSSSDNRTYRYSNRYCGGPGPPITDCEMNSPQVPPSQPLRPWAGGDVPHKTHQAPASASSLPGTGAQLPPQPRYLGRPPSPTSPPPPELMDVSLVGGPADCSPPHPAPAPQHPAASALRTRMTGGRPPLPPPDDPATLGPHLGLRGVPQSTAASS
For another data set, the target named is Fms (Homo sapiens, UniProt P07333). The note with it: Source Millipore; 10-point titration in duplicates, done once; cited from earlier work.
Chain of Fms (P07333 20-972): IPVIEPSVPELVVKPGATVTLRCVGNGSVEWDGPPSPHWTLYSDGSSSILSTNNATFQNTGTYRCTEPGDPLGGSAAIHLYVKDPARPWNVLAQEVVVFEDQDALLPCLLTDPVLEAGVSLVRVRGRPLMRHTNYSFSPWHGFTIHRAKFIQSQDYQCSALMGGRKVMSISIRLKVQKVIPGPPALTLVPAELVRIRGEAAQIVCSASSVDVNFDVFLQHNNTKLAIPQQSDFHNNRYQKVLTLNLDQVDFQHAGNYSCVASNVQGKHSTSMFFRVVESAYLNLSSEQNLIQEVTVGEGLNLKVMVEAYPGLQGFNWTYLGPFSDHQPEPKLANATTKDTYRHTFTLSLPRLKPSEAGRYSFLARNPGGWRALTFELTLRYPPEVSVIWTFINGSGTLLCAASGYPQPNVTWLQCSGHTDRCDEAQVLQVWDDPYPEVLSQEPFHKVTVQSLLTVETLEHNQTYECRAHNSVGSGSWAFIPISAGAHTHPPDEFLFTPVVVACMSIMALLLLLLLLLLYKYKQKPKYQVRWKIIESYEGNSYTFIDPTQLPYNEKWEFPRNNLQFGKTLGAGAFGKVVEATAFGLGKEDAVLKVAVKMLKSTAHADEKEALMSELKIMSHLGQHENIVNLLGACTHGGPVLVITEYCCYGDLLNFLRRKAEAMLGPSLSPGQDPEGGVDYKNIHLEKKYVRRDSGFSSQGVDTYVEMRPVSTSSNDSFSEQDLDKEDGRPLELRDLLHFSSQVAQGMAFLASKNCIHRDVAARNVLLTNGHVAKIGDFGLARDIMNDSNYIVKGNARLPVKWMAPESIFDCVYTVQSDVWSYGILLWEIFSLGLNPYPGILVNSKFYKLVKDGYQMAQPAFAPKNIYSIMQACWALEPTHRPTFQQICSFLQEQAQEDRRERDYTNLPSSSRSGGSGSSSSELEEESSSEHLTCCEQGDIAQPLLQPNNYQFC
In the next data set the target is PDGFRβ (Homo sapiens, UniProt P09619). The conditions noted are these: cited from earlier work.
A further data set relates to MYCN in DIPG-13p cells. Briefly: MYCN transcript (qRT-PCR) and protein (Western blot). Format: cell-based, human. The note with it: DIPG-13p cells (MYCN amplification). The protocol:
FIG. 14E provides Western blot confirming MYCN protein levels decrease in DIPG-13p cells from FIG. 14E.
Total RNA isolation was performed using an RNA extraction kit according to the manufacturer's instructions (RNeasy kit, Qiagen). cDNA was synthesized from 100 ng of total RNA using the Quantitect RT kit which included DNAse treatment (Qiagen). Quantitative real-time PCR was performed on 10 ng of cDNA template in a final volume of 20 μl using the Chromo4 Real Time PCR detector (MJ Research, a Division of Bio-Rad Laboratories Ltd) using SYBR green fluorescence. RT-PCR data was analyzed using Opticon Monitor 3.1.3 analysis software. Data analysis was done using the delta CT method with HPRT1 as a reference/control gene. Specific Primers are available in Table 4.

For a further data set, the target named is Pim-3 (Homo sapiens, UniProt Q86V86). The conditions noted are these: cited from earlier work.
The next data set deals with CYP3A4 (Homo sapiens, UniProt P08684). The note with it: cited from earlier work.
A further data set concerns the target PKCε (Homo sapiens, UniProt Q02156). The note with it: cited from earlier work.
A further data set addresses Kit (Homo sapiens, UniProt P10721). The conditions noted are these: cited from earlier work.
In the next data set the target is MEK1 (Homo sapiens, UniProt Q02750). The conditions noted are these: cited from earlier work.
Another data set deals with DIPG13p. Kind of data set: IC50 of two forms of TG02 in DIPG cell lines in vitro. Format: cell-based, human. The note with it: DIPG13p cell line; listed as TG02 obtained from Adastra Pharmaceuticals. The protocol:
(§1) Direct cell counts were performed using the Countess II FL Automated Cell Counter (ThermoFisher Scientific). Alamar blue viability (ThermoFisher Scientific) and the 5-bromo-2′-deoxyuridine (BrdU) incorporated cell proliferation assay (Cell Signaling Technology Cat #6813) were performed using the manufacturer's standard protocol. EC50 curve analysis was performed using raw fluorescent Alamar blue values that were inputted into PRISM 7.0. Drug concentrations were log 10 transformed and values normalized to percent viability with respect to vehicle treated cells. EC50 values were interpolated from a log inhibitor vs. normalized response with variable slope using a least square fit model.

A further data set deals with SF8628. The description is as above. The note with it: SF8628 cell line; listed as TG02 obtained from Adastra Pharmaceuticals. Format: cell-based, human. On the procedure: as §1
The subject of another data set is DIPG007. Described as above. The conditions noted are these: DIPG007 cell line; listed as TG02 obtained from Adastra Pharmaceuticals. Format: cell-based, human. The protocol:
as §1

The next data set deals with DIPG4. The data set is described as above. The note with it: DIPG4 cell line; listed as TG02 obtained from Adastra Pharmaceuticals. Format: cell-based, human. The protocol:
as §1

The next data set concerns the target p38α (Homo sapiens, UniProt Q16539). The note with it: cited from earlier work.
Data set [1] can be described thus: human pharmacokinetics of TG02 as a single agent.
For data set [2], the system named is DIPG-007 and DIPG-IV cells. Briefly: Annexin-PI flow cytometry apoptosis assay. Format: cell-based, human. The conditions noted are these: 48 h, vs DMSO vehicle control. The protocol:
FIGS. 5A-5K provide that pharmacological inhibition of ERK5 triggered cell death and apoptosis in DIPG cells. […] (5C-5E).
Apoptosis was quantified using the Pacific Blue Annexin V Apoptosis Detection Kit with propidium iodide (BioLegend, San Diego, Calif. Cat #640926). Analysis was performed at the Flow Cytometry Core, Rangos Research Center, UPMC Children's Hospital of Pittsburgh.
A general note: Flow cytometry measures light scatter and fluorescence of single cells or particles in a stream.

A further data set concerns the target JAK1 (Homo sapiens, UniProt P23458). The conditions noted are these: Source Invitrogen; 10-point titration in duplicates, done once; cited from earlier work.
Data set [3] deals with MYC in DIPG-IV and SF8628 cells. Kind of data set: Western blot of phospho MYC S62 and total MYC. Format: cell-based, human. The note with it: TG02 100 nM. On the procedure:
FIGS. 6A-6H provide that ERK5 inhibition reduced MYC protein stability. (6A) Schematic of identifying differentially expressed phospho-proteins in DIPG-IV cells expressing ERK5 and ERK5 knockdown. (6B) Ratio of phospho:total protein changes in ERK5 knockdown versus ERK5 control DIPG-IV cells. […] (6D) Western blot of MYC in DIPG-IV cells treated with Dox and MG132 (10 uM). (6E) Immunoprecipitation of MYC and ERK5 followed by western blot of ERK5 and MYC. […] (6G) Western blot of DIPG cells re-transfected with constitutively active MYC S62D in presence of ERK5 loss. (6H) Cell doubling times of control and ERK5 knockdown DIPG cells and the effect of MYC S62D rescue. SF8628 cells (left) and DIPG-IV cells (right).
Cell pellets were lysed in PLC lysis buffer containing protease and phosphatase inhibitors (Roche Inc.). Protein lysates were quantified using the bicinchoninic acid (BCA) assay (Pierce Chemical Co., Rockford, Ill.). 30 μg of total protein lysate was loaded in 10% SDS-PAGE gels and electrophoresed. Proteins were transferred to PVDF membranes using a semi-dry transfer apparatus (Bio-Rad). […] Binding was detected using Chemiluminescence Reagent Plus (PerkinElmer Inc., MA, USA).
On the technique in general: A western blot detects proteins with antibodies after separation by electrophoresis.

Another data set deals with FLT3 (Homo sapiens, UniProt P36888). The conditions noted are these: Source Invitrogen; 10-point titration in duplicates, done once; cited from earlier work.
Chain of FLT3 (P36888 27-993): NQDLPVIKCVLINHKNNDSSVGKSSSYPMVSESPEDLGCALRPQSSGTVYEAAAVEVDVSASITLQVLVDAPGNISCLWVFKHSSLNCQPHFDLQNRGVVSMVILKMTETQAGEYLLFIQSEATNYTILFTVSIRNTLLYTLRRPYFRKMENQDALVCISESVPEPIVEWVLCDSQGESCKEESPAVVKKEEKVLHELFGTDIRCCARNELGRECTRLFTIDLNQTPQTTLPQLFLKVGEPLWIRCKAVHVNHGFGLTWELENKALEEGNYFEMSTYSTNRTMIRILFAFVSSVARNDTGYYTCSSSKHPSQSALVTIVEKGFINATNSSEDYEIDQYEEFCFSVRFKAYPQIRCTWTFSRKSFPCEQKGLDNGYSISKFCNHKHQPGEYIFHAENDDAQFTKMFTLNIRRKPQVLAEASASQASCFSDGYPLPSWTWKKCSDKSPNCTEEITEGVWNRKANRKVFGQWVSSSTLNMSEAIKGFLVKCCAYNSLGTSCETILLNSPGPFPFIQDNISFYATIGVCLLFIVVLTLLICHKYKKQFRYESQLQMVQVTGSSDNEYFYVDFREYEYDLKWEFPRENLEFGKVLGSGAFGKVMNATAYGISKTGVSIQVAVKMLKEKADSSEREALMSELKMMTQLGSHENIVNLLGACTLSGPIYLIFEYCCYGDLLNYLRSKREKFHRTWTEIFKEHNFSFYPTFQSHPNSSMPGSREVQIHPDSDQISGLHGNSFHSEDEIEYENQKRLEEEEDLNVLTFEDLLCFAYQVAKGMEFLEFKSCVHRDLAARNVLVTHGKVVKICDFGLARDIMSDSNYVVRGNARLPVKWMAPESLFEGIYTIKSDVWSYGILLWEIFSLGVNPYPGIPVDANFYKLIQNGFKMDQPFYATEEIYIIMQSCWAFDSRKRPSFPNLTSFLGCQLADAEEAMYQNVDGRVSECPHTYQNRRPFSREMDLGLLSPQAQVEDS

Chain of JAK1 (P23458 whole entry): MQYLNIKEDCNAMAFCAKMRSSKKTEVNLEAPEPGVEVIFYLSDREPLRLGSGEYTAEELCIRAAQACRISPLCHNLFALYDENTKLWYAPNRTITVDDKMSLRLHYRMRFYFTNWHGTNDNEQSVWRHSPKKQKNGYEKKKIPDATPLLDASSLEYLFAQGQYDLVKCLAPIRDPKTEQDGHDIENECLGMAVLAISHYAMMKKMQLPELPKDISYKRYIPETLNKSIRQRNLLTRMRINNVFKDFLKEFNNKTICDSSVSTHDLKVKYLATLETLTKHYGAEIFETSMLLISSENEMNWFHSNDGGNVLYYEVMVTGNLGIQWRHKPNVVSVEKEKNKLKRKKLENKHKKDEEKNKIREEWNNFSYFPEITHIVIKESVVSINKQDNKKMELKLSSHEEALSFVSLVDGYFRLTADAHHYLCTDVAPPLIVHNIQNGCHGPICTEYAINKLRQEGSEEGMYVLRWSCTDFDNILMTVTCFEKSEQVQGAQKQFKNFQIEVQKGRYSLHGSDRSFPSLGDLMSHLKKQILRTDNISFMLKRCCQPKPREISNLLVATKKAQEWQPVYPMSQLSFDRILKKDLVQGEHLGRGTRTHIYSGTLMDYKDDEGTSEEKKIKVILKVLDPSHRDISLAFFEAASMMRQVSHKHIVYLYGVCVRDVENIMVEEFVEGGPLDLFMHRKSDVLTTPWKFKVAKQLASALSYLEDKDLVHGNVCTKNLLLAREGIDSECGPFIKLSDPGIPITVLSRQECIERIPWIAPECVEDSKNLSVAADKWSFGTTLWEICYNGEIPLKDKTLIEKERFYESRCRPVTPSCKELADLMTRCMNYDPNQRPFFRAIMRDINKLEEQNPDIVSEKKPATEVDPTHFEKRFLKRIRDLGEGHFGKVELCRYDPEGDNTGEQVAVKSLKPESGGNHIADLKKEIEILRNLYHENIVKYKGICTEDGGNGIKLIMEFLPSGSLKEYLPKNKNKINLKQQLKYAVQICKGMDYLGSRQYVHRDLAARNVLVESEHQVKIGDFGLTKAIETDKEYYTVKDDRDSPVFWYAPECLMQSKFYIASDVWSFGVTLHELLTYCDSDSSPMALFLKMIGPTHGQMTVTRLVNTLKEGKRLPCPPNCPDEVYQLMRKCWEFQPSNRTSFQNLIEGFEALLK
Chain of PKCε (Q02156 whole entry): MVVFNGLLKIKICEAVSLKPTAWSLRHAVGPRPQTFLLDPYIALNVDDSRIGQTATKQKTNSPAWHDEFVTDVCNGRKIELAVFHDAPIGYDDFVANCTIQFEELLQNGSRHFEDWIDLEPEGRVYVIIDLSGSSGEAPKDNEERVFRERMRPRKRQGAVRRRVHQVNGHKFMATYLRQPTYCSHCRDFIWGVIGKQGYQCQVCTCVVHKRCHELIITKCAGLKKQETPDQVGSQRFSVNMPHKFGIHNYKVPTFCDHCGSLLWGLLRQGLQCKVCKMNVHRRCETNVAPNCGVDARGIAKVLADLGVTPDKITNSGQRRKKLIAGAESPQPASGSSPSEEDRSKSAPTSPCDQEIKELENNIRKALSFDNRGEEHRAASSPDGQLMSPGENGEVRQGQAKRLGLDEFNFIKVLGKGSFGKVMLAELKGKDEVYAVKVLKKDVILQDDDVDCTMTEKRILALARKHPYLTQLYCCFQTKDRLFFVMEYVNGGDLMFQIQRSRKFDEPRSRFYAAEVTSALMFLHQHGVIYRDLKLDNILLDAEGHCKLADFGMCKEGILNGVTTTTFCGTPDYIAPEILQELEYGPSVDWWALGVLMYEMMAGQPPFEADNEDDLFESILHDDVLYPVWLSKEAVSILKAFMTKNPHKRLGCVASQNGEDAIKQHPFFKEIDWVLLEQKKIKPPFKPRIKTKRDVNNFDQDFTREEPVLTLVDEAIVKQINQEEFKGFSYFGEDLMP

As a reminder, the IC50 is the concentration needed to halve the response being measured. Consider `CN1C/C=C/CCOc2cccc(c2)-c2ccnc(n2)Nc2cccc(c2)C1` [TG02, (16E)-14-methyl-20-oxa-5,7,14,27-tetraazatetracyclo[19.3.1.12,6.18,12]heptacosa-1(25),2(27),3,5,8(26),9,11,16,21,23-decaene], for which the “inhibition at 100 nm” value at PKA, on PDK1, on DYRKIB, at PDGFRβ, at Pim-3 and at PKCε was “less than 50%” each time. The “inhibition at 100 nm” value at Kit, at MEK1 and at p38α was “less than 50%” in each case. In addition, the IC50 at Fms is 27 nM; with DIPG13p it was 80 nM; in the data set on SF8628 it was 70 nM; in the data set with DIPG007 it was 93 nM; with DIPG4, 60 nM; on JAK1 it was 59 nM. Besides, the IC50 at FLT3 is 19 nM. Also, in the data set with MYCN in DIPG-13p cells, the “MYCN protein and transcript levels” value is “MYCN protein and transcriptional down-regulation”. Further, the “substrate of CYP3A4” value on CYP3A4 is reported as “substrate”. Besides, the “peak concentration in plasma” value in data set [1] (adults, single dose of 200 mg, equivalent) was 11,000 nM. Also, the “Cmax in adults over in vitro IC50 in patient-derived DIPG cell lines” value in data set [1] (in vivo) is reported as about 2 logs. The “apoptosis (Annexin-PI)” value in data set [2] was “significantly higher rates of apoptosis; also recorded: increased populations in early apoptosis”. Besides, the “viable cells (Annexin negative, PI negative)” value in data set [2] is “decreased viable cells”. Besides, the “phospho MYC (S62) and total MYC” value in data set [3] is “reduced phospho and total MYC”.
